Assay results: patent US9857375B2, “Cancer marker and utilization thereof” (PUBLIC UNIVERSITY CORPORATION NARA MEDICAL UNIVERSITY, priority 2012, dated 2018)

Key:
[1] = system: human urothelial cancer cell strain KU7; test: cell survival assay (MTS assay) after addition of thapsigargin; type: cell-based; conditions: thapsigargin 0.1-2.5 μM, 72 hours after addition
Protocol: To a culture solution prepared by culturing, for 24 hours, cells transfected with RNA in the same manner as in Example 2, thapsigargin (Sigma Corporation), which is an endoplasmic reticulum stress agent, was added so that predetermined concentrations (0.1 μM, 0.5 μM, 1 μM, and 2.5 μM) were achieved.
Seventy-two hours after the addition of thapsigargin, a cell survival assay (MTS assay: with use of a kit from Promega KK) was performed to obtain the number of cells that survived, and the ratio (cell survival rate) of the number of cells that survived in the presence of thapsigargin to the number of cells that survived in the absence of thapsigargin was calculated.

[2] = system: human urothelial cancer cell strain KU7; test: TUNEL apoptosis detection after RNA transfection; type: cell-based; conditions: 72 hours of culture after lipofection, versus control RNA
Protocol: Control RNA (QIAGEN) or ubiquilin 2 siRNA was introduced into human urothelial cancer cell strain KU7 (donated by the School of Urology at the Department of Medicine in Keio University). The ubiquilin 2 siRNA used was siRNA synthesized with 5′-[…]-3′ (SEQ ID NO. 3) of the ubiquilin 2 gene as a Target sequence. The introduction of each RNA was performed by a Lipofection technique with a Lipofectamine™ RNAimax (Life Technologies Japan Ltd.).
After 72 hours of culture of the cells transfected with the RNA, TUNEL positive cells (i.e. cells having undergone apoptosis) were detected under a fluorescence microscope by the TUNEL (Terminal deoxynucleotidyl transferase dUTP nick end labeling) technique, and the percentage of the TUNEL positive cells to the total number of cells was calculated.

Molecule | cytotoxicity (cell survival rate) ([1]; KU7 cells transfected with control RNA (ubiquilin 2 gene not knocked down)) | cytotoxicity (cell survival rate) ([1]; KU7 cells transfected with ubiquilin 2 siRNA (ubiquilin 2 gene knocked down)) | apoptosis (TUNEL positive cells to DAPI positive cells, apoptosis rate) [2]
C/C=C(/C)C(=O)O[C@H]1C(C)=C2[C@H]([C@@H]1OC(=O)CCCCCCC)[C@@](C)(OC(C)=O)C[C@H](OC(=O)CCC)[C@@]1(O)[C@H]2OC(=O)[C@@]1(C)O [thapsigargin] | hardly exhibits cytotoxicity | markedly enhanced cytotoxicity | 
ubiquilin 2 siRNA: siRNA synthesized with 5′-TCCCATAAAGAGACCCTAATA-3′ (SEQ ID NO. 3) of the ubiquilin 2 gene as a Target sequence (siRNA sequence not given here, only target site) |  |  | apoptosis (death of cells) was induced in the cancer cells
